Measurements: publication PMC10599030, “[1, 8]-Naphthyridine derivatives as dual inhibitor of alkaline phosphatase and carbonic anhydrase” (BMC Chemistry, 2023)
“And” between values parts separate entries of the source, which are not always exact repeats. Equal values may be shown once. Read-outs that look alike come from different tables or passages of the source.

Columns and labels:
Assay type in all cases: biochemical
h-CAII = biological target: T1, h-CAII (Homo sapiens, UniProt P00918); assay: Inhibition assay for carbonic anhydrase II; conditions: for IC50: n = 3, read-out: CAII IC50 (µM) ± SEM
T1 construct: His (N); host or cells: HEK 293 T
Experimental: (§1) Expression of enzyme protein was done according to previously reported protocol. Briefly, transfection was carried out for CA-II, IX, and XII by using vectors pCMV3-N-His, pCMV3-SP-HIS-ORF, and pCMV3-N-His obtained from Sino Biologicals Inc., respectively. […] When cells gained about 80–90% confluency, they were washed twice with PBS and transfected with 0.2 µg plasmid solution. Cells were incubated for 6 h in 5% CO2 incubator, followed by the addition of fresh growth media. Cells were again incubated for 24 h. Hygromycin B (0.2 mg/mL) was used as a selection antibiotic for transfected cells. Cells were harvested after five days and lysed. Then desired proteins were purified via Ni–NTA resin using imidazole as affinity. SDS PAGE was carried out to confirm the molecular weight of purified protein.
(§2) The CA isozymes inhibition assay was performed according to the reported method after some modifications. Assay buffer was prepared that contained 50 mM tris-sulfate, 0.1 mM ZnCl2, and pH was adjusted at 7.6. Initially, 60 µL assay buffer was added in each well of 96 wells plate, 10 µL test compound (final concentration 100 µM), and followed by the addition of 10 µL working enzyme solution. The reaction mixture was incubated for 10 min at 37 °C. […] Then 20 µL of the substrate (6 mM) was added to the reaction mixture to initiate the reaction. The reaction mixture was incubated at 37 °C for 30 min, and absorbance was measured again. […] Results were reported as the mean of triplicate experiments (± SEM). The % inhibition was calculated by following the formula. Inhibition%=100-ODtestcompound/ODcontrol×100

h-CAXII = biological target: T2, h-CAXII (Homo sapiens, UniProt O43570); assay: Inhibition assay for carbonic anhydrase XII; conditions: for IC50: n = 3, read-out: CAXII IC50 (µM) ± SEM
T2 construct: His (N); host or cells: HEK 293 T
Experimental: as §1, §2

h-CAIX = biological target: T3, h-CAIX (Homo sapiens, UniProt Q16790); assay: Inhibition assay for carbonic anhydrase IX; conditions: for IC50: n = 3, read-out: CAIX IC50 (µM) ± SEM
T3 construct: His (N); host or cells: HEK 293 T
Experimental: as §1, §2

b-TNAP = biological target: T4, b-TNAP (Bos taurus, UniProt P09487); assay: Alkaline phosphatase inhibition assay (b-TNAP, p-NPP substrate); conditions: for IC50: n = 3, read-out: b-TNAP IC50 (µM) ± SEM; for inhibition at 100 µM: read-out: b-TNAP % Inhibition
T4 sequence (P09487 18-524): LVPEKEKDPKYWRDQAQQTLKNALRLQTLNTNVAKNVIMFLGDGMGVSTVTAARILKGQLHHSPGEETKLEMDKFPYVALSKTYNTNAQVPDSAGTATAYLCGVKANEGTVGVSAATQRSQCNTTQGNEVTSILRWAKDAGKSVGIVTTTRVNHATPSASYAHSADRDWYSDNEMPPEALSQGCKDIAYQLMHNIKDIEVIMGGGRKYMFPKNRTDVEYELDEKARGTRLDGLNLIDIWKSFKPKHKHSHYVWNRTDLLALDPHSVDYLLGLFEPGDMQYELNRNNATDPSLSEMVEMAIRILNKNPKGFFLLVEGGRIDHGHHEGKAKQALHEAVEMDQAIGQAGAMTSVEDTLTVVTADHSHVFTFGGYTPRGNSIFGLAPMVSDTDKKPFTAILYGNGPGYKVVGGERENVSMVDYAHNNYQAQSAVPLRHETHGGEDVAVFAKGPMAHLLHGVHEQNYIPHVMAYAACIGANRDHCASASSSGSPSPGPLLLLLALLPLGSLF
Experimental: The assay was based on previously reported protocol. […] All the solutions were made in assay buffer comprising Tris-HCl (50 mM), ZnCl2 (0.1 mM) and MgCl2 (5 mM) and pH was adjusted at 9.5. […] Assay was started by adding 70 μL of assay buffer in each well of 96 wells flat bottom clear microplate, followed by adding 10 μL of test compound and 10 μL of working enzyme solution. The reaction mixture was incubated at 37 °C for 10 min and absorbance was measured by a microplate reader (Bio-[…], Instruments, Inc. USA) at 405 nm. The reaction was started by adding 10 μL of 5 mM p-NPP (para-nitrophenolphosphate) as substrate. […] Following formula was used to calculate the percentage of inhibition of test compounds.

c-IAP = c-IAP (Bos taurus, UniProt P19111); assay: Alkaline phosphatase inhibition assay (c-IAP, p-NPP substrate)
Experimental: [1, 8]-Naphthyridine derivatives were screened for inhibitor potential towards b-TNAP and c-IAP. The assay was based on previously reported protocol. […]. All the solutions were made in assay buffer comprising Tris–HCl (50 mM), ZnCl2 (0.1 mM) and MgCl2 (5 mM) and pH was adjusted at 9.5. Working solutions of both enzymes were prepared in assay buffer containing 50% of glycerol. The final concentration of b-TNAP and c-IAP were kept at 0.025 U/mL and 0.05 U/mL, respectively. Assay was started by adding 70 µL of assay buffer in each well of 96 wells flat bottom clear microplate, followed by adding 10 µL of test compound and 10 µL of working enzyme solution. The reaction mixture was incubated at 37 °C for 10 min and absorbance was measured by a microplate reader (Bio-TekELx 800™, Instruments, Inc. USA) at 405 nm. The reaction was started by adding 10 µL of 5 mM p-NPP (para-nitrophenolphosphate) as substrate. […]. Following formula was used to calculate the percentage of inhibition of test compounds. Inhibition%=100-ODtestcompound/ODcontrol×100

[1] = 100 µM final concentration of compound

T2 sequence (O43570 25-354): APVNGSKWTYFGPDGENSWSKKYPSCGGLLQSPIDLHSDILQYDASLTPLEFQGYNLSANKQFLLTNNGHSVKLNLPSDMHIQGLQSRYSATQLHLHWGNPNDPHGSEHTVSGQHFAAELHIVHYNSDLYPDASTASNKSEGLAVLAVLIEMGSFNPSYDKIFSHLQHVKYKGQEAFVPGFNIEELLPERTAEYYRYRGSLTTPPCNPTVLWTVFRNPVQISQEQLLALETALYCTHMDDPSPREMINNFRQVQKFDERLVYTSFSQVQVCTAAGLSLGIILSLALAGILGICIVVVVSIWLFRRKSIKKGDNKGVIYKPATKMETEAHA
c-IAP, sequence (P19111 20-506): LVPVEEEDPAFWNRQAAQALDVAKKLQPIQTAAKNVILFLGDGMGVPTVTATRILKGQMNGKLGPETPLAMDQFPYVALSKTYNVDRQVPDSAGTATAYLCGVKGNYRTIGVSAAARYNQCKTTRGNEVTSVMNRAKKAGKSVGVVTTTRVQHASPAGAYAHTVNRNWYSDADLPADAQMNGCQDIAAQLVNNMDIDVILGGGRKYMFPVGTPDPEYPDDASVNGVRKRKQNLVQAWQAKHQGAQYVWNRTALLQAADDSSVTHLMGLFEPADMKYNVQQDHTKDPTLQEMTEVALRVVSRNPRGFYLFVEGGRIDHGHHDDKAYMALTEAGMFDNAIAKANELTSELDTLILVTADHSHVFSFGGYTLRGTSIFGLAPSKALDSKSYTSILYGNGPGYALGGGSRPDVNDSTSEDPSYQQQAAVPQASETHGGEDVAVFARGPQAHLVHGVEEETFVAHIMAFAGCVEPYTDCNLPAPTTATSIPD

SMILES | IC50 (h-CAII) | IC50 (h-CAXII) | IC50 (h-CAIX) | IC50 (b-TNAP) | further results
c1ccc(-c2cc3cccnc3n3cccc23)cc1 [Compound 1a] | 1.28 ± 0.16 µM | 0.32 ± 0.07 µM | 0.86 ± 0.47 µM | 0.38 ± 0.09 µM | 
CC(C)(C)c1ccc(-c2cc3cccnc3n3cccc23)cc1 [Compound 1b] | 1.26 ± 0.44 µM | 1.51 ± 0.72 µM |  | 0.122 µM and 0.12 µM | Times more potent as compared to Levamisole (standard inhibitor of TNAP) (b-TNAP; ratio of IC50 values): 160 times
Fc1ccc(-c2cc3cccnc3n3cccc23)cc1 [Compound 1c] | 0.9 ± 0.5 µM | 0.96 ± 0.28 µM | 0.7 ± 0.27 µM | 1.01 ± 0.31 µM | 
Cc1ccc(-c2cc3cccnc3n3cccc23)cc1 [Compound 1d] |  | 2.4 ± 0.98 µM | 1.36 ± 0.48 µM |  | Activity against CA-II in words (h-CAII): inactive; Activity against CA-XII in words (h-CAXII): marked activity; Activity against CA-IX in words (h-CAIX): marked activity; inhibition at 100 µM (b-TNAP): < 30%
CCCCc1cc2cccnc2n2cccc12 [Compound 1e] | 0.44 ± 0.19 µM | 0.51 ± 0.41 µM | 1.61 ± 0.26 µM | 0.32 ± 0.11 µM | 
COc1ccc(-c2cc3cccnc3n3cccc23)cc1 [Compound 1f] |  | 4.3 ± 2.2 µM | 0.99 ± 0.12 µM | 0.14 ± 0.12 µM | 
COc1cccc(-c2cc3cccnc3n3cccc23)c1 [Compound 1g] | 0.1 ± 0.04 µM | 3.05 ± 0.92 µM | 0.11 ± 0.03 µM | 0.63 ± 0.47 µM | 
COc1ccc(-c2cc3cccnc3n3cccc23)c(C)c1 [Compound 1h] | 1.46 ± 0.96 µM | 0.8 ± 0.69 µM | 0.74 ± 0.51 µM |  | Activity against c-IAP in words (c-IAP): complete loss of activity; inhibition at 100 µM (c-IAP; read-out: c-IAP % Inhibition): 37%; Activity against b-TNAP in words (b-TNAP): loss of activity; inhibition at 100 µM (b-TNAP; [1]): 33%
Cc1cccc(-c2cc3cccnc3n3cccc23)c1 [Compound 1i] |  | 0.46 ± 0.12 µM | 0.87 ± 0.51 µM |  | Activity against CA-II in words (h-CAII): inactive; Activity against CA-XII in words (h-CAXII): significant activity; Activity against CA-IX in words (h-CAIX): significant activity; Activity against b-TNAP in words (b-TNAP): loss of activity; inhibition at 100 µM (b-TNAP): < 30%
Fc1ccccc1-c1cc2cccnc2n2cccc12 [Compound 1j] | 2.14 ± 0.3 µM | 0.51 ± 0.26 µM | 1.65 ± 0.98 µM |  | Activity against b-TNAP in words (b-TNAP): loss of activity; inhibition at 100 µM (b-TNAP): < 20%
c1cnc2c(c1)cc(-c1ccsc1)c1cccn12 [Compound 1k] | 1.63 ± 0.55 µM | 1.8 ± 0.42 µM |  | 0.36 ± 0.07 µM | CAIX % inhibition (h-CAIX; [1]): 35.1%; inhibition at 100 µM (h-CAIX; [1]): < 50%
c1cnc2c(c1)cc(C1CCCCC1)c1cccn12 [Compound 1l] | 1.99 ± 0.71 µM | 1.5 ± 0.31 µM | 3.2 ± 1.52 µM | 0.24 ± 0.06 µM | 
N[C@@H](Cc1ccccc1)C(=O)O [L-phenyl alanine, reference compound] |  |  |  |  | IC50 (c-IAP; n = 3, read-out: c-IAP IC50 (µM) ± SEM): 80.21 ± 0.001 µM
c1ccc([C@H]2CN3CCSC3=N2)cc1 [Levamisole, reference compound] |  |  |  | 19.21 ± 0.001 µM | 
